Blank lines part the entries; values can stand above or below the compound they belong to.
What was measured:
Assay in all cases: radiometric filter-binding kinase assay, Kinase HotSpot
Settings in all cases: compound 0.5 µM; ATP 10 µM
IGF1R (human) = IGF1R (human) (UniProt P08069)
STK4 (human) = STK4 (human) (UniProt Q13043)
AURKB (human) = AURKB (human) (UniProt Q96GD4)
AXL (human) = AXL (human) (UniProt P30530)
PLK3 (human) = PLK3 (human) (UniProt Q9H4B4)
ERBB2 (human) = ERBB2 (human) (UniProt P04626)
MAPK8 (human) = MAPK8 (human) (UniProt P45983)
MAPKAPK5 (human) = MAPKAPK5 (human) (UniProt Q8IW41)
MST4 (human) = MST4 (human) (UniProt Q9P289)
MATK (human) = MATK (human) (UniProt P42679)
PIM3 (human) = PIM3 (human) (UniProt Q86V86)
MAP3K14 (human) = MAP3K14 (human) (UniProt Q99558)
CDK7 CCNH MNAT1 (human) = CDK7 CCNH MNAT1 (human) (UniProt P50613+P51948+P51946)
PRKCB2 (human) = PRKCB2 (human) (UniProt P05771)
EPHA4 (human) = EPHA4 (human) (UniProt P54764)
PAK7 (human) = PAK7 (human) (UniProt Q9P286)
PRKCB1 (human) = PRKCB1 (human) (UniProt P05771)
RPS6KA1 KD1 KD2 (human) = RPS6KA1 KD1 KD2 (human) (UniProt Q15418)
MET (human) = MET (human) (UniProt P08581)
STK3 (human) = STK3 (human) (UniProt Q13188)
KIT (human) = KIT (human) (UniProt P10721)
PDGFRA (human) = PDGFRA (human) (UniProt P16234)
CSNK1G2 (human) = CSNK1G2 (human) (UniProt P78368)
MARK4 (human) = MARK4 (human) (UniProt Q96L34)
EPHB2 (human) = EPHB2 (human) (UniProt P29323)
PRKG2 (human) = PRKG2 (human) (UniProt Q13237)
RPS6KA2 KD1 KD2 (human) = RPS6KA2 KD1 KD2 (human) (UniProt Q15349)
FER (human) = FER (human) (UniProt P16591)
PIM1 (human) = PIM1 (human) (UniProt P11309)
AKT2 (human) = AKT2 (human) (UniProt P31751)
PRKCI (human) = PRKCI (human) (UniProt P41743)
NEK1 (human) = NEK1 (human) (UniProt Q96PY6)
JAK3 JH1 JH2 (human) = JAK3 JH1 JH2 (human) (UniProt P52333)
PKN2 (human) = PKN2 (human) (UniProt Q16513)
ITK (human) = ITK (human) (UniProt Q08881)
CAMK2D (human) = CAMK2D (human) (UniProt Q13557)
STK11 (human) = STK11 (human) (UniProt Q15831)
DYRK2 (human) = DYRK2 (human) (UniProt Q92630)
PAK6 (human) = PAK6 (human) (UniProt Q9NQU5)
HIPK3 (human) = HIPK3 (human) (UniProt Q9H422)
CSF1R (human) = CSF1R (human) (UniProt P07333)
NTRK3 (human) = NTRK3 (human) (UniProt Q16288)

Chain of CDK7 CCNH MNAT1 (human) (P50613 whole entry, looked up): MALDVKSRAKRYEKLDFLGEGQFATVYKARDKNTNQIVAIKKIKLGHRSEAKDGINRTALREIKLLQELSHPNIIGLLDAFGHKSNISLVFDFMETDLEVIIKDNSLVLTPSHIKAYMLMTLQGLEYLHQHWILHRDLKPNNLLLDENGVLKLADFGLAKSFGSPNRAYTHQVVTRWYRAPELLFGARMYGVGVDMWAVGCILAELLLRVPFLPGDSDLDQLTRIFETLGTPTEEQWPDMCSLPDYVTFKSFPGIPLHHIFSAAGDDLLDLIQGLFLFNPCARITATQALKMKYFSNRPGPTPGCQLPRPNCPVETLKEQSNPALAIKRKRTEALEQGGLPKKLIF
Chain of CDK7 CCNH MNAT1 (human) (P51946 whole entry, looked up): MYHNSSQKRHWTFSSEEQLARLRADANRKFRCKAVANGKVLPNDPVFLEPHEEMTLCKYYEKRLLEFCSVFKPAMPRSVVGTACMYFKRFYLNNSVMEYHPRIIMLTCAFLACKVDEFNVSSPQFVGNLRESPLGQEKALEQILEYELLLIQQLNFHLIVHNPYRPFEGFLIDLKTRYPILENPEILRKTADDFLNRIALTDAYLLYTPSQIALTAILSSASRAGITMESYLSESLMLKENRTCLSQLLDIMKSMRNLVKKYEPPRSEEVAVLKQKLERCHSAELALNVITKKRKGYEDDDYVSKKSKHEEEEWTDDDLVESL
Chain of CDK7 CCNH MNAT1 (human) (P51948 whole entry, looked up): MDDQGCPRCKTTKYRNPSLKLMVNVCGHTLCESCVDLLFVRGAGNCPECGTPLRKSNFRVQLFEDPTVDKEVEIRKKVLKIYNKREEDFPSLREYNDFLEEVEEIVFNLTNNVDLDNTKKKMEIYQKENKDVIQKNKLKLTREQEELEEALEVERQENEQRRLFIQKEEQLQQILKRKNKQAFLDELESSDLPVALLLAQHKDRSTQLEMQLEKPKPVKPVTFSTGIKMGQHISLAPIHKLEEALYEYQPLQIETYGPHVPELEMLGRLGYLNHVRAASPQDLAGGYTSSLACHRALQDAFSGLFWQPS
Chain of PRKG2 (human) (Q13237 whole entry, looked up): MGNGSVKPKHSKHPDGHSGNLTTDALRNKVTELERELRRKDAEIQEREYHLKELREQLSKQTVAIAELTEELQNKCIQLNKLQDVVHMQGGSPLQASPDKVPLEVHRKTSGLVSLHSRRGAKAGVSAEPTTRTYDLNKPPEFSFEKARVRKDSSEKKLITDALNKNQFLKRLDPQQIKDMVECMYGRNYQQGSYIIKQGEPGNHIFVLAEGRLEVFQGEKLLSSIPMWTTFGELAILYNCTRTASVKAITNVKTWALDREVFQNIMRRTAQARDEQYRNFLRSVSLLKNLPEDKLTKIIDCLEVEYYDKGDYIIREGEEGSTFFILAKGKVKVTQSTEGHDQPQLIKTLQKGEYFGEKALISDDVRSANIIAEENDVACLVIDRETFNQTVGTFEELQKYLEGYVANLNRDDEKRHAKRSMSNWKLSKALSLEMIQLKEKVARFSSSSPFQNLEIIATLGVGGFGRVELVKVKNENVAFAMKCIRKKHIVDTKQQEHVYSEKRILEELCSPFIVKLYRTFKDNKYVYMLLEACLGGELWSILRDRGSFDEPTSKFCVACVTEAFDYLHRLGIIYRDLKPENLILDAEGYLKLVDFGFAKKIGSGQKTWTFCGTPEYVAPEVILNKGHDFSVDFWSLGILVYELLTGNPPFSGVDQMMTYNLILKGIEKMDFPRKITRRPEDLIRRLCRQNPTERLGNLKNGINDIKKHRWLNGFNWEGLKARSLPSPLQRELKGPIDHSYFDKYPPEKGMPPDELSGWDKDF
Chain of PAK7 (human) (Q9P286 whole entry, looked up): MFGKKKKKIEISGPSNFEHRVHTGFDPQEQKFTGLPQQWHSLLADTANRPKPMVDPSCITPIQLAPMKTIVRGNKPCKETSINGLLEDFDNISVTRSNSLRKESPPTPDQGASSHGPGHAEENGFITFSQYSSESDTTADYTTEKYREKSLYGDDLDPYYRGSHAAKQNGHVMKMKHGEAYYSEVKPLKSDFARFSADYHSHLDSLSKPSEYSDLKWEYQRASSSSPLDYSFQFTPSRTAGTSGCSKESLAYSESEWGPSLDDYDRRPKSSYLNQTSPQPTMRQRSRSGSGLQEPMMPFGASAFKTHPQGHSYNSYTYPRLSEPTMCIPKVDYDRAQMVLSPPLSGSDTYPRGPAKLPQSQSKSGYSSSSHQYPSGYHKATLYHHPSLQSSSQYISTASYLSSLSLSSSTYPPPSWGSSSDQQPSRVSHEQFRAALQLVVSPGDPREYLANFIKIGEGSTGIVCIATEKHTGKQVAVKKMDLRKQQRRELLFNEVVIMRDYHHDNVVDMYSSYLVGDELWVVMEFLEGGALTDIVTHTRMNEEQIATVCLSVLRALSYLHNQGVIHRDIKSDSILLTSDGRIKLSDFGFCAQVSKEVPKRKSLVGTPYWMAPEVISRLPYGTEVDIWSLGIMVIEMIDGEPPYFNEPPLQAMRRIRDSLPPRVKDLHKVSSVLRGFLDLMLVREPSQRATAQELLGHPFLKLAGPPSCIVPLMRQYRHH
Chain of NEK1 (human) (Q96PY6 whole entry, looked up): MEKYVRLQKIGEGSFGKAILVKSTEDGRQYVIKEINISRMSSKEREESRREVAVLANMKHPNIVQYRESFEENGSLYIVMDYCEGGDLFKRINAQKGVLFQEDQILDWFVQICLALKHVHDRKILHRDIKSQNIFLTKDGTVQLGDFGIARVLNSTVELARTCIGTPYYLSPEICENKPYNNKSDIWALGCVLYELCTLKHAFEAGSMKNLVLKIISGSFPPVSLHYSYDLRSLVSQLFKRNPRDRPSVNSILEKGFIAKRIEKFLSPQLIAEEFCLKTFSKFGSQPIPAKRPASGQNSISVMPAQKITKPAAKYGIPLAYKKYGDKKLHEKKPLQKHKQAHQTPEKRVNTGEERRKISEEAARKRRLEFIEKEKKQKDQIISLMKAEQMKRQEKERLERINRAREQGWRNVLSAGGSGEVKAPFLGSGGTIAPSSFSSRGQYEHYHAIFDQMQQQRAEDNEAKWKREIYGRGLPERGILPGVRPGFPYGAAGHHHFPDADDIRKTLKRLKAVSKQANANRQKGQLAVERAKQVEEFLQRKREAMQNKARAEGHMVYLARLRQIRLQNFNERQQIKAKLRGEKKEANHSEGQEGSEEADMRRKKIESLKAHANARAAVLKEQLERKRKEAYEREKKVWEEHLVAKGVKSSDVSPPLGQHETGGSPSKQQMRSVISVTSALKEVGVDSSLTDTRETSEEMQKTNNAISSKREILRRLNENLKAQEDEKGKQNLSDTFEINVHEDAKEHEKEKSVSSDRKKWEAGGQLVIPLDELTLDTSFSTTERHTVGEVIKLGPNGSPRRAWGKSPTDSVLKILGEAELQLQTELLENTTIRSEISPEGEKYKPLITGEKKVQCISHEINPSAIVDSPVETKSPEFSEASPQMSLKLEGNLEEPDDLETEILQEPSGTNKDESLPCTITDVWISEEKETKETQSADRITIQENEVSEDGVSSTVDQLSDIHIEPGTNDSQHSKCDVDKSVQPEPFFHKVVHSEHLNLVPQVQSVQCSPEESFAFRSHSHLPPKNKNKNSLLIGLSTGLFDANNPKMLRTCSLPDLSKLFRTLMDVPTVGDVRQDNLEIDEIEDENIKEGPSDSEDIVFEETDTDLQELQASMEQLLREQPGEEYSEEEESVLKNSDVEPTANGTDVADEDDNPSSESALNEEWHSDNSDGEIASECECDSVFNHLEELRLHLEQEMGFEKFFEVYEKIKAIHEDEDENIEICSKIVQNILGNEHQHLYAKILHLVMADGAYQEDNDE
Chain of PAK6 (human) (Q9NQU5 whole entry, looked up): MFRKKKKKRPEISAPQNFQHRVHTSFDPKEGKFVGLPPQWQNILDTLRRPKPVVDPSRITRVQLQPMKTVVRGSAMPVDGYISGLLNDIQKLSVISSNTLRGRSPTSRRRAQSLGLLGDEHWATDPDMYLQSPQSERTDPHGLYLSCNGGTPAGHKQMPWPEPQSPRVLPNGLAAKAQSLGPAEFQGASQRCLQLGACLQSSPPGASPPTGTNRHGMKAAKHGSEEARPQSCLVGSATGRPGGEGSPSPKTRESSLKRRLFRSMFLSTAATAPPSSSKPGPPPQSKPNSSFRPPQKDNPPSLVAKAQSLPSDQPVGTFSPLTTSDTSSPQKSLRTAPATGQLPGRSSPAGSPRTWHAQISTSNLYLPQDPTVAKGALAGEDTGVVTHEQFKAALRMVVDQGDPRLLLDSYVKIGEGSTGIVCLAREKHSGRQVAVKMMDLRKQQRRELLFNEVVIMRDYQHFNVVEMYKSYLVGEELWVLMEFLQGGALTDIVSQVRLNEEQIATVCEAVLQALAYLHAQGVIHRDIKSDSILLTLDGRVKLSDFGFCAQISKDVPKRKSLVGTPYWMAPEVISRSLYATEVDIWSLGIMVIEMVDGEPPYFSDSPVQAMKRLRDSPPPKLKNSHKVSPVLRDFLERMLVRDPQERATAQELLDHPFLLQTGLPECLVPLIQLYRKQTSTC
Chain of CAMK2D (human) (Q13557 whole entry, looked up): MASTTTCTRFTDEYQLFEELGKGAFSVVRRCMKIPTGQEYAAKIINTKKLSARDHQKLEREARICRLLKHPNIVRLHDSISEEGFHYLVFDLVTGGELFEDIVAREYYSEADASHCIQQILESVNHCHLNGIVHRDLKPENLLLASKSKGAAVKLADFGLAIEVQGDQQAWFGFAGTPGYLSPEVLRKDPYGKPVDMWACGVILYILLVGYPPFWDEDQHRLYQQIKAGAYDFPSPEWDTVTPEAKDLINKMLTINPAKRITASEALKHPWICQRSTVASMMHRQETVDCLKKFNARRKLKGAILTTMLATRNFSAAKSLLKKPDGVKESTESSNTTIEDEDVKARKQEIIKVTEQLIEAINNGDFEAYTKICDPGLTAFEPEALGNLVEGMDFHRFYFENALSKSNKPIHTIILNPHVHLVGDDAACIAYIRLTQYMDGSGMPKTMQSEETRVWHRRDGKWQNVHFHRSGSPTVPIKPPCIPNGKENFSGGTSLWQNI

Structure (SMILES): COc1cc2c(N3CCN(C(=O)Nc4ccc(OC(C)C)cc4)CC3)ncnc2cc1OCCCN1CCCCC1
- residual activity (IGF1R (human)): 97.7%
- residual activity (STK4 (human)): 96.2%
- residual activity (AURKB (human)): 89.6%
- residual activity (AXL (human)): 99%
- residual activity (PLK3 (human)): 99.3%
- residual activity (ERBB2 (human)): 104%
- residual activity (MAPK8 (human)): 105%
- residual activity (MAPKAPK5 (human)): 91.9%
- residual activity (MST4 (human)): 101%
- residual activity (MATK (human)): 79.4%
- residual activity (PIM3 (human)): 100%
- residual activity (MAP3K14 (human)): 98.6%
- residual activity (CDK7 CCNH MNAT1 (human)): 109%
- residual activity (PRKCB2 (human)): 93.1%
- residual activity (EPHA4 (human)): 96.4%
- residual activity (PAK7 (human)): 87.5%
- residual activity (PRKCB1 (human)): 98.4%
- residual activity (RPS6KA1 KD1 KD2 (human)): 94.8%
- residual activity (MET (human)): 92.5%
- residual activity (STK3 (human)): 94.7%
- residual activity (KIT (human)): 45.1%
- residual activity (PDGFRA (human)): 11.1%
- residual activity (CSNK1G2 (human)): 95.5%
- residual activity (MARK4 (human)): 98.7%
- residual activity (EPHB2 (human)): 97.6%
- residual activity (PRKG2 (human)): 105%
- residual activity (RPS6KA2 KD1 KD2 (human)): 98.6%
- residual activity (FER (human)): 104%
- residual activity (PIM1 (human)): 97.8%
- residual activity (AKT2 (human)): 97.9%
- residual activity (PRKCI (human)): 96.2%
- residual activity (NEK1 (human)): 119%
- residual activity (JAK3 JH1 JH2 (human)): 99.8%
- residual activity (PKN2 (human)): 110%
- residual activity (ITK (human)): 99%
- residual activity (CAMK2D (human)): 106%
- residual activity (STK11 (human)): 104%
- residual activity (DYRK2 (human)): 107%
- residual activity (PAK6 (human)): 101%
- residual activity (HIPK3 (human)): 101%

Structure (SMILES): N#Cc1c(NC(=O)c2cccc3ccccc23)sc2c1CCCC2
- residual activity (STK4 (human)): 93.1%
- residual activity (AURKB (human)): 103%
- residual activity (AXL (human)): 106%
- residual activity (PLK3 (human)): 99.6%
- residual activity (ERBB2 (human)): 97.6%
- residual activity (MAPK8 (human)): 87.3%
- residual activity (MAPKAPK5 (human)): 96.6%
- residual activity (MST4 (human)): 102%
- residual activity (MATK (human)): 92.7%
- residual activity (PIM3 (human)): 95.3%
- residual activity (MAP3K14 (human)): 111%
- residual activity (CDK7 CCNH MNAT1 (human)): 101%
- residual activity (PRKCB2 (human)): 104%
- residual activity (EPHA4 (human)): 99%
- residual activity (PAK7 (human)): 103%
- residual activity (PRKCB1 (human)): 90.9%
- residual activity (RPS6KA1 KD1 KD2 (human)): 86.1%
- residual activity (MET (human)): 109%
- residual activity (STK3 (human)): 111%
- residual activity (KIT (human)): 84.2%
- residual activity (PDGFRA (human)): 101%
- residual activity (CSNK1G2 (human)): 103%
- residual activity (MARK4 (human)): 101%
- residual activity (EPHB2 (human)): 97.5%
- residual activity (PRKG2 (human)): 111%
- residual activity (CSF1R (human)): 97.2%
- residual activity (RPS6KA2 KD1 KD2 (human)): 95.3%
- residual activity (FER (human)): 99.7%
- residual activity (PIM1 (human)): 105%
- residual activity (AKT2 (human)): 105%
- residual activity (PRKCI (human)): 95.9%
- residual activity (NEK1 (human)): 93.4%
- residual activity (JAK3 JH1 JH2 (human)): 101%
- residual activity (PKN2 (human)): 103%
- residual activity (ITK (human)): 101%
- residual activity (CAMK2D (human)): 97.7%
- residual activity (STK11 (human)): 96.1%
- residual activity (DYRK2 (human)): 119%
- residual activity (PAK6 (human)): 101%
- residual activity (HIPK3 (human)): 116%

Structure (SMILES): N/C(=N\N=C/c1ccc(-c2cccc([N+](=O)[O-])c2)o1)N[N+](=O)[O-]
- residual activity (IGF1R (human)): 96.4%
- residual activity (STK4 (human)): 96.5%
- residual activity (AURKB (human)): 99.1%
- residual activity (AXL (human)): 100%
- residual activity (PLK3 (human)): 96.8%
- residual activity (ERBB2 (human)): 100%
- residual activity (MAPK8 (human)): 91.2%
- residual activity (MAPKAPK5 (human)): 94.6%
- residual activity (MST4 (human)): 99.5%
- residual activity (NTRK3 (human)): 104%
- residual activity (MATK (human)): 94.3%
- residual activity (PIM3 (human)): 114%
- residual activity (MAP3K14 (human)): 77.9%
- residual activity (CDK7 CCNH MNAT1 (human)): 100%
- residual activity (PRKCB2 (human)): 100%
- residual activity (PAK7 (human)): 97%
- residual activity (PRKCB1 (human)): 88.9%
- residual activity (RPS6KA1 KD1 KD2 (human)): 86.3%
- residual activity (MET (human)): 96.3%
- residual activity (STK3 (human)): 100%
- residual activity (KIT (human)): 96.4%
- residual activity (PDGFRA (human)): 93.2%
- residual activity (CSNK1G2 (human)): 101%
- residual activity (MARK4 (human)): 87.6%
- residual activity (EPHB2 (human)): 84.6%
- residual activity (PRKG2 (human)): 98.7%
- residual activity (CSF1R (human)): 94.5%
- residual activity (RPS6KA2 KD1 KD2 (human)): 94.5%
- residual activity (FER (human)): 94.7%
- residual activity (PIM1 (human)): 92.9%
- residual activity (AKT2 (human)): 99.7%
- residual activity (PRKCI (human)): 92.3%
- residual activity (NEK1 (human)): 97.7%
- residual activity (JAK3 JH1 JH2 (human)): 103%
- residual activity (PKN2 (human)): 92.6%
- residual activity (ITK (human)): 99.5%
- residual activity (CAMK2D (human)): 90.1%
- residual activity (STK11 (human)): 98.7%
- residual activity (DYRK2 (human)): 93.1%
- residual activity (PAK6 (human)): 99%

Structure (SMILES): COc1cc2c(Nc3ccc(Br)cc3F)ncnc2cc1OCC1CCN(C)CC1
- residual activity (IGF1R (human)): 94.6%
- residual activity (STK4 (human)): 103%
- residual activity (AURKB (human)): 95.5%
- residual activity (AXL (human)): 55%
- residual activity (PLK3 (human)): 95%
- residual activity (ERBB2 (human)): 72.2%
- residual activity (MAPK8 (human)): 93.7%
- residual activity (MAPKAPK5 (human)): 94.7%
- residual activity (MST4 (human)): 102%
- residual activity (NTRK3 (human)): 72.2%
- residual activity (MATK (human)): 101%
- residual activity (PIM3 (human)): 96.1%
- residual activity (MAP3K14 (human)): 155%
- residual activity (CDK7 CCNH MNAT1 (human)): 102%
- residual activity (PRKCB2 (human)): 91.6%
- residual activity (PAK7 (human)): 93.5%
- residual activity (PRKCB1 (human)): 89.1%
- residual activity (RPS6KA1 KD1 KD2 (human)): 102%
- residual activity (STK3 (human)): 97.5%
- residual activity (KIT (human)): 71.4%
- residual activity (PDGFRA (human)): 28.6%
- residual activity (CSNK1G2 (human)): 98.5%
- residual activity (MARK4 (human)): 99.4%
- residual activity (EPHB2 (human)): 24.4%
- residual activity (PRKG2 (human)): 101%
- residual activity (RPS6KA2 KD1 KD2 (human)): 85.9%
- residual activity (FER (human)): 95.8%
- residual activity (PIM1 (human)): 95%
- residual activity (AKT2 (human)): 110%
- residual activity (PRKCI (human)): 88.1%
- residual activity (NEK1 (human)): 123%
- residual activity (JAK3 JH1 JH2 (human)): 96%
- residual activity (PKN2 (human)): 99.7%
- residual activity (ITK (human)): 101%
- residual activity (CAMK2D (human)): 95.8%
- residual activity (STK11 (human)): 105%
- residual activity (DYRK2 (human)): 97.2%
- residual activity (PAK6 (human)): 105%
- residual activity (HIPK3 (human)): 99.5%

- residual activity (IGF1R (human)): 100%
- residual activity (STK4 (human)): 92.2%
- residual activity (AURKB (human)): 94%
- residual activity (AXL (human)): 106%
- residual activity (PLK3 (human)): 94.7%
- residual activity (ERBB2 (human)): 104%
- residual activity (MAPK8 (human)): 87.6%
- residual activity (MAPKAPK5 (human)): 98.3%
- residual activity (MST4 (human)): 104%
- residual activity (NTRK3 (human)): 80.2%
- residual activity (MATK (human)): 89.8%
- residual activity (PIM3 (human)): 3.74%
- residual activity (MAP3K14 (human)): 109%
- residual activity (CDK7 CCNH MNAT1 (human)): 93.2%
- residual activity (EPHA4 (human)): 104%
- residual activity (PAK7 (human)): 98.9%
- residual activity (PRKCB1 (human)): 90.8%
- residual activity (RPS6KA1 KD1 KD2 (human)): 79%
- residual activity (MET (human)): 105%
- residual activity (STK3 (human)): 98.9%
- residual activity (KIT (human)): 93.6%
- residual activity (PDGFRA (human)): 99%
- residual activity (CSNK1G2 (human)): 87%
- residual activity (MARK4 (human)): 91.6%
- residual activity (EPHB2 (human)): 112%
- residual activity (PRKG2 (human)): 98.1%
- residual activity (CSF1R (human)): 99.2%
- residual activity (RPS6KA2 KD1 KD2 (human)): 89.6%
- residual activity (FER (human)): 91%
- residual activity (PIM1 (human)): 11.6%
- residual activity (AKT2 (human)): 104%
- residual activity (PRKCI (human)): 94.4%
- residual activity (NEK1 (human)): 70%
- residual activity (JAK3 JH1 JH2 (human)): 106%
- residual activity (PKN2 (human)): 99.3%
- residual activity (ITK (human)): 98.8%
- residual activity (CAMK2D (human)): 89.3%
- residual activity (STK11 (human)): 79.4%
- residual activity (DYRK2 (human)): 22.2%
- residual activity (PAK6 (human)): 97.6%
- residual activity (HIPK3 (human)): 106%
Structure (SMILES): N#C/C(=C1/Nc2ccccc2S1)c1ccnc(NCCc2cccnc2)n1

Reference: the kinase profiling compilation of Christmann-Franck et al. (2016)
